Data on six compounds can be found in US12583846B2, “2H-benzopyran derivatives as CRAC inhibitors” (CISEN PHARMACEUTICAL CO., LTD, priority 2019, dated 2026).

A short description of data set [1]: Pharmacokinetic evaluation in mice (intravenous administration of compound 18 or 22, 50 mg/kg). The following applies: for elimination in plasma after administration (in words): intravenous 50 mg/kg. The data set is classed as in vivo, C57BL/6 mice. The protocol: Purpose of the experiment: male C57BL/6 mice were used as test animals, and the LC/MS/MS method was applied to determine the plasma drug concentrations of the compounds at different time points after intravenous administration. The pharmacokinetic behavior of the compounds in mice was studied, and their pharmacokinetic characteristics were evaluated.
Drug preparation: an appropriate amount of sample was weighed to prepare 5 mg/mL of clear solution with sterile normal saline.
Administration scheme: two healthy male C57BL/6 mice purchased from Beijing Vital River Laboratory Animal Technology Co., Ltd. was on a normal diet, with a volume of 10 mL/kg and a dose of 50 mg/kg.
Procedure: after animal administration, 25 μL of blood was collected at 0.083, 0.25, 0.5, 1, 2, 4, 8, 12, and 24 hours, respectively and placed in a commercial anticoagulative tube pre-loaded with EDTA-K2. The tubes were centrifuged for 10 minutes to separate plasma and stored at −60° C. The content of the corresponding compounds in plasma samples was determined by LC/MS/MS.

Data set [2] can be described thus: Thermodynamic solubility test. In kind it is physicochemical. The following applies: for solubility in water (in words): conclusion of the thermodynamic solubility test. How it is done: About 2 mg of test compound was weighed into a whatman vial, and 450 μL of phosphate buffer (50 mM, pH=7.4) was added. The stopper of whatman vial was pressed to near the liquid level so that the filter membrane in the stopper is in uniform contact with the liquid level. The vial was shaken well up and down on vortex for two minutes, and the dissolution of test compound in the whatman vial was recorded. The whatman vial was shaken in a shaker at ambient temperature for 24 hours at a rotational speed of 600 r/min. The stopper of whatman vial was slowly pressed to the lowermost part to obtain the supernatant. […] A linear solution (3 standard solutions, 1, 20, 200 μM, n=1) was prepared with diluent. The supernatant was taken out, and 10 μL of the supernatant was accurately taken out and diluted 100 times. The obtained diluent and stock solution and linear solution were simultaneously put into HPLC for detection and analysis, and the results were calculated by an external standard method according to peak area and dilution factor.

The subject of another data set is IL-2. Put plainly: Inhibitory activity on cytokines: IL-2 in supernatant of anti-CD3/anti-CD28 stimulated hPBMC by CBA method. In kind it is cell-based. Conditions: Homo sapiens, 48 h, anti-CD3/anti-CD28, 2 days incubation. How it is done:
(§1) Human peripheral blood mononuclear cells (hPBMC); supplier: HemaCare; Article Number: PB009C-2
(§2) 96-well plates were coated with 5 μg/mL anti-human CD3 antibody (in DPBS) at […] overnight at 4° C.
(§3) PBMC were removed from liquid nitrogen and immediately placed in a 37° C. water bath for recovery. To a 15 mL centrifuge tube, 5 mL culture medium (RPMI1640 culture medium+10% fetal bovine serum+1% non-essential amino acids+1% penicillin streptomycin+0.05 mM β-mercaptoethanol) was added, and the cell suspension was pipetted to the centrifuge tube, and the mixture was centrifuged at 320 g for 5 minutes. The cells were resuspended with culture medium and counted, and the cell concentration was then adjusted to 5×10^5 cells/mL with the culture medium, To the cell suspension was added anti-human CD28 antibody (final concentration 2 μg/mL), and the mixture was inoculated into a 96-well plate at 200 μL/well.
(§4) Compounds were prepared at the desired concentration and added to the cells. The mixture was incubated at 37° C., 5% CO2 for 2 days.
The standards were prepared according to the instructions of IL-2 and TNFα Flex Set kit. The supernatant of the cultured cells was diluted 5-fold with the buffer provided in the kit and added to a 96-well plate together with the standards. The plated was added with magnetic beads containing antibody from the kit, and incubated at room temperature for 1 hour. The fluorescein PE-labeled secondary antibody in the kit was added and incubated at room temperature for 2 hours. The average fluorescence intensity of the PE channel was detected by flow cytometry. Based on the average fluorescence intensity of the standards, the contents of IL-2 and TNF-α of the samples were calculated.

A further data set deals with TNF-α. Put plainly: Inhibitory activity on cytokines: TNFα in supernatant of anti-CD3/anti-CD28 stimulated hPBMC by CBA method. The data set is classed as cell-based. The following applies: Homo sapiens, 48 h, anti-CD3/anti-CD28, 2 days incubation. How it is done:
as §1, §2, §3, §4
The standards were prepared according to the instructions of IL-2 and TNFα Flex Set kit. […] The average fluorescence intensity of the PE channel was detected by flow cytometry. Based on the average fluorescence intensity of the standards, the contents of IL-2 and TNF-α of the samples were calculated.

Data set [3] is described as follows: Pharmacokinetic evaluation experiment in mice (intravenous or intraperitoneal injection of compound 6). In kind it is in vivo, C57BL/6 mice. How it is done: Purpose of the experiment: male C57BL/6 mice were used as test animals, and the plasma drug concentrations of the test compounds were determined by LC/MS/MS at different time points after intravenous or intraperitoneal injection. The pharmacokinetic behavior of the test compound in mice was studied to evaluate its pharmacokinetic characteristics.
Drug preparation: an appropriate amount of sample was weighed to prepare 0.3 mg/mL or 0.5 mg/mL clear solution with 40% PEG400+20% Solutol+40% H2O (volume ratio).
Administration scheme: two healthy male C57BL/6 mice purchased from Beijing Vital River Laboratory Animal Technology Co., Ltd. was on a normal diet. The intravenous injection group was administered with 0.5 mg/mL solution, with a dose volume of 2 mL/kg and a dose of 1 mg/kg. The intraperitoneal injection group was administered with 0.3 mg/mL solution, with a volume of 10 mL/kg and a dose of 3 mg/kg.
Procedure: after animal administration, 25 μL of blood was collected at 0.083, 0.25, 0.5, 1, 2, 4, 8, 12, and 24 hours, respectively and placed in a commercial anticoagulative tube pre-loaded with EDTA-K2. The tubes were centrifuged for 10 minutes to separate plasma and stored at −60° C. The content of target compound in plasma samples was determined by LC/MS/MS.

Data set [4] concerns bombesin-induced acute pancreatitis model in mice. As to the kind of experiment: Pharmacodynamic test of bombesin-induced acute pancreatitis in mice (compound 6). The following applies: compound 6 intraperitoneal 20 mg/kg; bombesin 50 μg/kg x 7; FIG. 2. In kind it is in vivo, C57BL/6 mice. The protocol:
Purpose of the experiment: male C57BL/6 mice were used as test animals, and acute pancreatitis was induced by intraperitoneal injection of bombesin. The efficacy of compound 6 on acute pancreatitis was studied.
Drug preparation: an appropriate amount of sample was weighed, and compound 6 was prepared to a 4 mg/mL clear solution with 40% PEG-400+20% Solutol+40%+H2O (v/v).
Experiment scheme: healthy male C57BL/6 mice were injected with bombesin intraperitoneally to induce pancreatitis model, at a dose of 50 μg/kg each time, with 7 injections at an interval of 1 hour. One hour after the seventh injection of bombesin, serum was taken and the levels of amylase and lipase were measured. Compound 6 was administered by intraperitoneal injection at a dose of 20 mg/kg.
Experimental results: see FIG. 2. The levels of plasma amylase (AMY) and lipase (LPS) were analyzed by one-way ANOVA, * * indicates significant difference with G1 (P<0.01), * indicates significant difference with G1 (P<0.05).

Setting [5] is: administered compound itself in plasma, 50 mg/kg intravenous, mice, 50 mg/kg.
The mark [6] stands for this setting: male, C57BL/6, mouse, plasma, iv, 50 mg/kg, administered compound itself in plasma, 50 mg/kg intravenous, mice.
[7] abbreviates: male, C57BL/6, mouse, plasma, intravenous injection, 1 mg/kg.
Where [8] appears, read: male, C57BL/6, mouse, plasma, ip, intraperitoneal injection, 3 mg/kg.

Bounds are passed on as bounds.

In the case of `O=C(c1c(F)cccc1F)N(COP(=O)(O)O)c1cnc(-c2cc3oc(C4CC4)cc3cc2Cl)cn1` [Compound 18], the “DNAUC0-last (exposure normalized to molar dose)” value in data set [1] (setting [5]) stood at 0.69 µM·h. Besides, in data set [1] (setting [6]), the AUC(0-t) (usually exposure summed from dosing to a finite time, without extrapolation to infinity) worked out at 57.2 µM·h; the clearance worked out at 25.1 mL/min/kg; the half-life (as a rule, how long it takes for the measured level to halve) was 2.49 h. For the same compound, the Vd in data set [1] (male, C57BL/6, mouse, plasma, iv, 50 mg/kg, administered compound itself in plasma, 50 mg/kg intravenous, mice, read-out: Vdss) turned out to be 0.84 L/kg. Besides, in data set [1] (mice), the “elimination in plasma after administration (in words)” value is recorded as “rapidly eliminated”. In addition, the thermodynamic solubility (usually the concentration in solution at equilibrium with solid) at 24 h in data set [2] (aqueous buffer, thermodynamic from solid, phosphate buffer 50 mM, pH 7.4, 24 hours, ambient temperature) was > 200 µM. Further, the “solubility in water (in words)” value in data set [2] is “very good”.

With `O=C(Nc1cnc(-c2cc3oc(C4CC4)nc3cc2Cl)cn1)c1c(F)cccc1F` [Compound 4], the IC50 (commonly the point on the concentration scale where inhibition reaches its midpoint) in the data set with IL-2 is 280 nM.

As for `O=C(c1c(F)cccc1F)N(COP(=O)(O)O)c1cnc(-c2cc3oc(C4CC4)cc3cc2Cl)cn1` [Compound 23], the “solubility in water (in words)” value in data set [2] is listed as “very good”.

Regarding `O=C(Nc1cnc(-c2cc3oc(C4CC4)cc3cc2Cl)cn1)c1c(F)cccc1F` [Compound 6], the “formation of compound 6 in plasma (in words)” value in data set [1] (from 5 min of administration of compound 18 or 22, mice) is “a large amount”. In the data set on TNF-α, this compound had an IC50 of 138 nM. Moreover, the “plasma exposure and pharmacokinetic properties (in words)” value in data set [3] (intravenous and intraperitoneal routes) was “higher plasma exposure and desirable pharmacokinetic properties”. Besides, the bioavailability in data set [3] (male, C57BL/6, mouse, plasma, intraperitoneal 3 mg/kg vs intravenous 1 mg/kg) came out at 125%. For the same compound, in data set [3] (setting [7]), the AUC(0-t) is 15.6 µM·h, the clearance was determined as 2.05 mL/min/kg and the half-life was 10.6 h. Besides, the Vd in data set [3] (male, C57BL/6, mouse, plasma, intravenous injection, 1 mg/kg, read-out: Vdss) came out at 1.77 L/kg. In data set [3] (setting [8]), the AUC(0-t) was determined as 62.7 µM·h; the Cmax (commonly the maximum level reached in the sampled fluid or tissue) is 5.53 µM; the time of peak concentration (Tmax) (as a rule, the time at which the peak concentration occurs) was found to be 2 h. The same compound came in with an IC50 in the data set on IL-2 of 63.8 nM. In data set [4], the “serum amylase (AMY) level” value is listed as “significantly reduce” and the “serum lipase (LPS) level” value is on record as “significantly reduce”.

Regarding `O=C(Nc1cnc(-c2cc3oc(C4COC4)cc3cc2Cl)cn1)c1c(F)cccc1F` [Compound 17], the IC50 turned out to be 328 nM with TNF-α and 173 nM with IL-2.

Take `O=C(c1c(F)cccc1F)N(COP(=O)(O)O)c1cnc(-c2cc3oc(C4CC4)cc3cc2Cl)cn1` [Compound 22]: in data set [1] (setting [5]), the AUC0-last came out at 37.1 µM·h, the CL was 28.9 mL/min/kg, the “DNAUC0-last (exposure normalized to molar dose)” value came out at 0.58 µM·h and the T1/2 turned out to be 2.53 h. Moreover, the Vdss (as a rule, a proportionality between amount in the body and measured concentration, not a real space) in data set [1] (setting [5]) is 1.05 L/kg. In data set [1] (mice), the “elimination in plasma after administration (in words)” value is “rapidly eliminated”. In addition, the “solubility in water (in words)” value in data set [2] is recorded as “very good”.
